# Laboratory results published in patent publication US20250102494A1, “COMPOSITION FOR PREDICTING OXALIPLATIN DRUG EFFICACY, AND USE THEREOF” (SAMSUNG LIFE PUBLIC WELFARE FOUNDATION, priority 2022, published 2025).
# Like-named read-outs stand apart in the source and are kept apart here.
# Experiments:
# Assay type in all cases: cell-based
# HCT116 cells = experiment: ATPlite cell viability after drug treatment, HCT116 cells in cell-line or organoid culture media; design: AUC 1st / AUC 2nd / AUC 3rd / AUC Average: unit not given here
# Procedure: (§1) Advanced DMEM/F12+++ (hereinafter referred to as “Ad/DF+++”) was used to produce colorectal cancer organoids. Ad/DF+++ was refrigerated at 4° C. until use, and was used in a cold state during cell washing. Ad/DF+++ medium containing the reagents shown in Table 1 below along with Ad/DF 1× (Gibco) was prepared.
# (§2) After preparing the Ad/DF+++ medium containing the above reagents, an appropriate amount of Matrigel (Corning #356231) was added so that the ratio between Matrigel and cells suspended in the Ad/DF+++ medium was 7:3. Then, the cells were plated on low attachment well plates at an appropriate density. The density and the type and number of well plates were determined according to the characteristics of each cell type. The medium was prepared according to the composition shown in Table 2 below, and the cells were cultured (expanded) until the required level was reached while the medium was replaced every 3 to 4 days.
# If the organoids were expanded as needed for the experiment, the medium was carefully removed, taking care not to touch the Matrigel. The cells were separated from the Matrigel by pipetting about 20 times with 1 ml of cold Ad/DF+++. The cells in 1 to 4 wells per 6-well plate were collected in one 50 ml tube. If cells are collected from more than 4 wells into one tube, the Metrigel may not be washed properly. For this reason, the cells were placed in several tubes. Thereafter, Ad/DF+++ was poured to 20 to 50 ml of each tube, followed by centrifugation at 400 g for 3 minutes at 4° C. The cells were dissociated with 1 to 2 mL of TrypLE™ Express Enzyme (Gibco, 1264-013), transferred to low-attachment 24 well plates, and then treated with 10 μM of Y-27632. Next, the cells were cultured in a CO2 incubator for 5 minutes at 37° C. After pipetting about 20 times, whether the cells would be dissociated into single cells was checked by microscopic observation. If the cells were not dissociated into single cells, the culture under CO2 and pipetting processes were repeated. After the single cells were transferred into 15-ml tubes, Ad/DF+++ was filled to 10 to 15 ml of each tube, followed by centrifugation at 400 g at 4° C. for 3 minutes. After suspending the pellet in Ad/DF+++, the cells were counted and diluted with medium according to the required number of cells.
# 12 hours after seeding in Experimental Example 1-2 above, the medium was changed with the medium shown in Table 3 below, followed by culturing to produce organoids.
# (§3) Four hours after the medium change, the cells were treated with oxaliplatin, 5-FU, Irinotecan, and folinic acid. Five days after drug treatment, intracellular ATP expression was determined using the ATPlite assay kit (PerkinElmer), and the data were expressed in terms of cell viability, IC50, and AUC.
# (§4) As the standard for confirming that cells are sensitive to the drug, the response of the cells to the drug was assumed to be 100%, and the luminescence value of surviving cells after drug treatment was analyzed and compared with the quantified drug response value.
# (§5) Based on the assumption that the factor that increases the resistance of the organoids to oxaliplatin is an activator or inhibitor that changes the phenotype, the organoids prepared by excluding some or all of activators and inhibitors as shown in Table 4 below were treated with oxaliplatin.
# In order to identify the factors that reduce the resistance to oxaliplatin of the Ex2 organoid, activators or inhibitors that change the phenotype were added one by one to the Ex2 organoid composition, thus producing organoids as shown in Table 8 below. Then, it was checked whether the produced organoids had increased resistance to oxaliplatin.
# CoLo205 cells = experiment: ATPlite cell viability after oxaliplatin, CoLo205 cells in organoid culture media; conditions: FIG. 19
# Procedure: as §1
# as §2, with “The medium was prepared according to the composition shown in Table 2 below, and the cells were cultured (expanded) until the required level was reached while the medium was replaced every 3 to 4 days.” left out
# If the organoids were expanded as needed for the experiment, the medium was carefully removed, taking care not to touch the Matrigel. […] After suspending the pellet in Ad/DF+++, the cells were counted and diluted with medium according to the required number of cells. […]
# as §3, with “AUC. […]” for “AUC.”
# Total Cell Line = experiment: Average oxaliplatin AUC over all colorectal cancer cell lines
# Procedure: as §3, §4, §5
# In order to confirm reduced resistance to oxaliplatin, ECT116, RKO, SW620, and LS147T cell lines, which are highly sensitive to oxaliplatin, and HT29, HTC15, CoLo205, and Lovo cell lines, which are low sensitive to oxaliplatin, were used.
# When the above results were combined with the results shown by cell lines with high sensitivity to oxaliplatin and cell lines with low sensitivity to oxaliplatin, the result data shown in FIGS. 23 and 24 and Tables 5 to 7 below were obtained.
structure (smiles),measurement,setting,value
O=C1[O][Pt]2([NH][C@@H]3CCCC[C@H]3[NH]2)[O]C1=O [oxaliplatin],IC50,"HCT116 cells; HCT116 in Ex2-3, 2nd, read-out: IC50 (μM) 2nd",63.4 µM
same,AUC 3rd,"HCT116 cells; HCT116 in Ex2-3, 3rd",287.0
same,IC50,"HCT116 cells; HCT116 in Ex2-3, 3rd, read-out: IC50 (μM) 3rd",18.2 µM
same,AUC Average,"HCT116 cells; HCT116 in Ex2-3, average",312.3
same,IC50,"HCT116 cells; HCT116 in Ex2-3, average, read-out: IC50 (μM) Average",37.3 µM
same,AUC 1st,"HCT116 cells; HCT116 in Ex2-4 (Ex2 + Wnt3a), 1st",258.2
same,IC50,"HCT116 cells; HCT116 in Ex2-4 (Ex2 + Wnt3a), 1st, read-out: IC50 (μM) 1st",5.9 µM
same,AUC 2nd,"HCT116 cells; HCT116 in Ex2-4, 2nd",304.7
same,IC50,"HCT116 cells; HCT116 in Ex2-4, 2nd, read-out: IC50 (μM) 2nd",38.8 µM
same,AUC 3rd,"HCT116 cells; HCT116 in Ex2-4, 3rd",315.9
same,IC50,"HCT116 cells; HCT116 in Ex2-4, 3rd, read-out: IC50 (μM) 3rd",26.9 µM
same,AUC Average,"HCT116 cells; HCT116 in Ex2-4, average",292.9
same,IC50,"HCT116 cells; HCT116 in Ex2-4, average, read-out: IC50 (μM) Average",23.8 µM
same,AUC 1st,"HCT116 cells; HCT116 in Ex2-5 (Ex2 + R-spondin 1 1 μg/ml), 1st",317.5
same,IC50,"HCT116 cells; HCT116 in Ex2-5 (Ex2 + R-spondin 1 1 μg/ml), 1st, read-out: IC50 (μM) 1st",34 µM
same,AUC 2nd,"HCT116 cells; HCT116 in Ex2-5, 2nd",322.7
same,IC50,"HCT116 cells; HCT116 in Ex2-5, 2nd, read-out: IC50 (μM) 2nd",43 µM
same,AUC 3rd,"HCT116 cells; HCT116 in Ex2-5, 3rd",351.6
same,IC50,"HCT116 cells; HCT116 in Ex2-5, 3rd, read-out: IC50 (μM) 3rd",103 µM
same,AUC Average,"HCT116 cells; HCT116 in Ex2-5, average",330.6
same,IC50,"HCT116 cells; HCT116 in Ex2-5, average, read-out: IC50 (μM) Average",60 µM
same,AUC 1st,"HCT116 cells; HCT116 in Ex2-6 (Ex2 + Noggin 100 ng/ml), 1st",264.3
same,IC50,"HCT116 cells; HCT116 in Ex2-6 (Ex2 + Noggin 100 ng/ml), 1st, read-out: IC50 (μM) 1st",7.8 µM
same,AUC 2nd,"HCT116 cells; HCT116 in Ex2-6, 2nd",309.4
same,IC50,"HCT116 cells; HCT116 in Ex2-6, 2nd, read-out: IC50 (μM) 2nd",41.4 µM
same,AUC 3rd,"HCT116 cells; HCT116 in Ex2-6, 3rd",292.6
same,IC50,"HCT116 cells; HCT116 in Ex2-6, 3rd, read-out: IC50 (μM) 3rd",22.1 µM
same,AUC Average,"HCT116 cells; HCT116 in Ex2-6, average",288.8
same,IC50,"HCT116 cells; HCT116 in Ex2-6, average, read-out: IC50 (μM) Average",23.8 µM
same,AUC 2nd,"HCT116 cells; HCT116 in Ex2, 2nd",324.8
same,IC50,"HCT116 cells; HCT116 in Ex2, 2nd, read-out: IC50 (μM) 2nd",46.1 µM
same,AUC 3rd,"HCT116 cells; HCT116 in Ex2, 3rd",331.7
same,IC50,"HCT116 cells; HCT116 in Ex2, 3rd, read-out: IC50 (μM) 3rd",40.5 µM
same,AUC Average,"HCT116 cells; HCT116 in Ex2, average",325.4
same,IC50,"HCT116 cells; HCT116 in Ex2, average, read-out: IC50 (μM) Average",38.1 µM
same,"drug response, colorectal cancer cell line compared with cells under Ex1 organoid culture conditions","HCT116 cells; HCT-116, FIG. 2",increased resistance under the organoid culture conditions
same,"drug responsiveness, colorectal cancer cell line compared with organoids cultured in Ex1 and Ex2","HCT116 cells; HCT-116, FIG. 25",oxaliplatin resistance decreased in Ex2
same,AUC values of Ex2 to Ex4 compared with Ex1,CoLo205 cells,higher than that of Ex1
same,EX1_AUC,"Total Cell Line; average over total cell lines, Ex1 medium",408.05
same,EX2_AUC,"Total Cell Line; average over total cell lines, Ex2 medium",384.32
same,normal_AUC,"Total Cell Line; average over total cell lines, normal cell-line culture",330.83
same,EX1 − EX2 (AUC difference),Total Cell Line; total cell lines,23.73
